Columns and labels:
[1] = MTT cell viability assay, HepG2 cells; format: cell-based; details: human, read-out: HepG2 Cytotoxicity CC50
Experimental: In order to assess the cytotoxicity of the compounds, an MTT cell viability assay was performed in either unstimulated THP-1 or HepG2 cells as follows. 5×10^4 THP-1 or 5×10^3 HepG2 cells were seeded into each well of a 96-well plate in 90 μL of media. Compounds were added to cells as described for the IL-10 assay and returned to the incubator for an additional 72 hours. Next, 25 μL of MTT solution (5 mg/mL in sterile PBS) was added to each well. Plates were incubated for 3 hours at 37° C., 5% CO2. Next, for THP-1 cells, 100 μl of MTT solubilization solution (40% Dimethylformamide, 2% glacial acetic acid, 16% sodium dodecyl sulfate) was then added to each well and plates were incubated at room temperature in the dark overnight. For HepG2 cells, media was aspirated, 50 μL of DMSO was added and plates were mixed briefly with an orbital plate shaker. Absorbance at 570 nm was measured using a Perkin-Elmer EnVision plate reader.
Absorbance values were converted to percentage of vehicle-treated controls. Data was then analyzed using a non-linear regression (variable slope (four-parameter)) equation in GraphPad Prism 7.0. […]

[2] = MTT cell viability assay, THP-1 cells; format: cell-based; details: human, unstimulated THP-1 cells, read-out: THP-1 Cytotoxicity CC50
Method in brief: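 Unstimulated THP-1 (5×10^4/well) or HepG2 (5×10^3/well) cells exposed to compound for 72 h, then MTT 3 h at 37 °C. Formazan solubilised overnight in DMF/acetic acid/SDS (THP-1) or in DMSO (HepG2); absorbance 570 nm. CC50 by four-parameter fit of percent vehicle control.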

[3] = test system: IL-1β; assay: IL-1β inhibition assay (ELISA/HTRF of culture supernatants); format: cell-based; details: Homo sapiens, PMA-differentiated THP-1 cells, tested 10 μM to 0.003 μM
Method in brief: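 PMA-differentiated THP-1 cells treated at final compound concentrations of 10 μM to 0.003 μM; supernatant IL-1β quantified by Quantikine ELISA or HTRF. Background-subtracted values expressed as % of vehicle controls; EC50 from four-parameter variable-slope nonlinear regression.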

[4] = target: T1, IL-1 (Homo sapiens, UniProt P01584); details: cited from earlier work
T1 construct: host or cells: patients (in vivo)

Row | Compound | EC50 [3] [µM] | CC50 at 72 h [1] [µM] | CC50 at 72 h [2] [µM] | incidence of fatal infection ([4]; CANTOS trial) | reduction in total cancer mortality (mostly lung cancer) compared to placebo ([4]; high-dose) [%]
1 | CC(C)c1cc(C#N)c(F)c(C(C)C)c1NC(=O)NS(=O)(=O)c1ccc2c(c1)C(O)OB2O (stereo not shown) [Example 52, N-((4-cyano-3-fluoro-2,6-diisopropylphenyl)carbamoyl)-1,3-dihydroxy-1,3-dihydrobenzo[c][1,2]oxaborole-5-sulfonamide] | > 10 | > 10 | > 10 | – | –
2 | COc1cc(-c2ccc3c(c2NC(=O)NS(=O)(=O)c2ccc4c(c2)C(O)OB4O)CCC3)ccn1 (stereo not shown) [Example 53, 1,3-dihydroxy-N-((5-(2-methoxypyridin-4-yl)-2,3-dihydro-1H-inden-4-yl)carbamoyl)-1,3-dihydrobenzo[c][1,2]oxaborole-5-sulfonamide] | 1 to 10 | > 10 | > 10 | – | –
3 | CC1(C)OB(O)c2ccc(S(=O)(=O)NC(=O)Nc3c4c(cc5c3CCC5)CCC4)cc21 [Example 57, N-((1,2,3,5,6,7-hexahydro-s-indacen-4-yl)carbamoyl)-1-hydroxy-3,3-dimethyl-1,3-dihydrobenzo[c][1,2]oxaborole-5-sulfonamide] | 1 to 10 | > 10 | > 10 | – | –
4 | canakinumab: the neutralizing IL-10 antibody canakinumab (anti-IL-1, Novartis) | – | – | – | higher incidence of fatal infection | > 50
5 | O=C(Nc1c2c(cc3c1CCC3)CCC2)NS(=O)(=O)c1ccc2c(c1)C(O)OB2O (stereo not shown) [Example 54, N-((1,2,3,5,6,7-hexahydro-s-indacen-4-yl)carbamoyl)-1,3-dihydroxy-1,3-dihydrobenzo[c][1,2]oxaborole-5-sulfonamide] | > 10 | > 10 | > 10 | – | –
6 | CC(C)c1cc(C#N)c(F)c(C(C)C)c1NC(=O)NS(=O)(=O)c1ccc2c(c1)C(C)OB2O (stereo not shown) [Example 56, N-((4-cyano-3-fluoro-2,6-diisopropylphenyl)carbamoyl)-1-hydroxy-3-methyl-1,3-dihydrobenzo[c][1,2]oxaborole-5-sulfonamide] | 1 to 10 | > 10 | > 10 | – | –
7 | CC(CCB1O[C@@H]2C[C@@H]3C[C@@H](C3(C)C)[C@]2(C)O1)n1ccc(S(=O)(=O)NC(=O)Nc2c3c(cc4c2CCC4)CCC3)n1 (stereo partly drawn) [Example 60, N-((1,2,3,5,6,7-hexahydro-s-indacen-4-yl)carbamoyl)-1-(4-((3aS,4S,6S,7aR)-3a,5,5-trimethylhexahydro-4,6-methanobenzo[d][1,3,2]dioxaborol-2-yl)butan-2-yl)-1H-pyrazole-3-sulfonamide] | 1 to 10 | > 10 | > 10 | – | –
8 | O=C(Nc1c2c(cc3c1CCC3)CCC2)NS(=O)(=O)C1(CCCB(O)O)CC1 [Example 71, (3-(1-(N-((1,2,3,5,6,7-hexahydro-s-indacen-4-yl)carbamoyl)sulfamoyl)cyclopropyl)propyl)boronic acid] | 1 to 10 | > 10 | – | – | –

Now from value to compound, other results behind:

Row | EC50 [3] [µM] | Compound | CC50 at 72 h [1] [µM] | CC50 at 72 h [2] [µM] | incidence of fatal infection ([4]; CANTOS trial) | reduction in total cancer mortality (mostly lung cancer) compared to placebo ([4]; high-dose) [%]
9 | < 1 | CC(CCn1ccc(S(=O)(=O)NC(=O)Nc2c3c(cc4c2CCC4)CCC3)n1)CB1OC(C)(C)C(C)(C)O1 (stereo not shown) [Example 61, N-((1,2,3,5,6,7-hexahydro-s-indacen-4-yl)carbamoyl)-1-(3-methyl-4-(4,4,5,5-tetramethyl-1,3,2-dioxaborolan-2-yl)butyl)-1H-pyrazole-3-sulfonamide] | > 10 | > 10 | – | –
10 | < 1 | CC(C)(CCn1ccc(S(=O)(=O)NC(=O)Nc2c3c(cc4c2CCC4)CCC3)n1)B1OC(C)(C)C(C)(C)O1 [Example 62, N-((1,2,3,5,6,7-hexahydro-s-indacen-4-yl)carbamoyl)-1-(3-methyl-3-(4,4,5,5-tetramethyl-1,3,2-dioxaborolan-2-yl)butyl)-1H-pyrazole-3-sulfonamide] | > 10 | > 10 | – | –
11 | < 1 | COc1cc(-c2ccc3c(c2NC(=O)NS(=O)(=O)c2ccc4c(c2)C(C)OB4O)CCC3)ccn1 (stereo not shown) [Example 55, 1-hydroxy-N-((5-(2-methoxypyridin-4-yl)-2,3-dihydro-1H-inden-4-yl)carbamoyl)-3-methyl-1,3-dihydrobenzo[c][1,2]oxaborole-5-sulfonamide] | > 10 | > 10 | – | –
12 | < 1 | CC(CB1OC(C)(C)C(C)(C)O1)c1coc(S(=O)(=O)NC(=O)Nc2c3c(cc4c2CCC4)CCC3)c1 (stereo not shown) [Example 58, N-((1,2,3,5,6,7-hexahydro-s-indacen-4-yl)carbamoyl)-4-(1-(4,4,5,5-tetramethyl-1,3,2-dioxaborolan-2-yl)propan-2-yl)furan-2-sulfonamide] | > 10 | – | – | –
13 | < 1 | CC(C)(Cn1ccc(S(=O)(=O)NC(=O)Nc2c3c(cc4c2CCC4)CCC3)n1)B1OC(C)(C)C(C)(C)O1 [Example 66, N-((1,2,3,5,6,7-hexahydro-s-indacen-4-yl)carbamoyl)-1-(2-methyl-2-(4,4,5,5-tetramethyl-1,3,2-dioxaborolan-2-yl)propyl)-1H-pyrazole-3-sulfonamide] | > 10 | – | – | –
14 | < 1 | CC1(C)OB(CCCN2CC(S(=O)(=O)NC(=O)Nc3c4c(cc5c3CCC5)CCC4)C2)OC1(C)C [Example 73, N-((1,2,3,5,6,7-hexahydro-s-indacen-4-yl)carbamoyl)-1-(3-(4,4,5,5-tetramethyl-1,3,2-dioxaborolan-2-yl)propyl)azetidine-3-sulfonamide] | > 10 | – | – | –
